Experimental data published in patent US20160007541A1, “Increasing Harvest (Yield) of Crop Plants Utilizing Thermodynamic Laws on a Whole Plant Basis to Detect Optimal Periods for Exothermic Energy Versus Endothermic Energy Needs” (Stoller Enterprises, Inc., priority 2014, published 2016).

Test system: tomato plants
Experiment: Tomato yield, Brix and taste after cobalt via drip irrigation (Table 4)
Format: in vivo
Settings: base fertility plus cobalt @ 1 pt/acre over 5 weeks

With `[Co]` [cobalt] the “Taste test 14 scientific personnel” value (base 2) was 2.8, the “% Brix (sugars)” value (base 4.8) was 5.5% and the “Yield (No. of tons per acre)” value (base 29.6) was 33.9 tons per acre. For the same molecule, the “Yield (number of tomato fruits per acre × 1,000)” value (base 244) was 288 fruits per acre × 1,000.
